# Data from patent US10232013B2, “Use of an antimicrobial peptide TP4 in treating a cancer” (Academia Sinica, priority 2016, dated 2019).
# Marks after values point to notes of the source that are not given here. Where no end group is shown, it is not given here.
# How the values were obtained:
# MB453 (MDA-MB453) cells = assay: MTS cell viability assay, MB453; type: cell-based, human; conditions: mean±SD
# Description: (§1) Cell-lines used in this study were purchased from the Bioresource Collection and Research Center (BCRC) in and the cells were cultured by the standard cell culture procedures and conditions provided by the BCRC. MB231 (BCRC 60425), MB453 (BCRC 60429), and HDF cells were cultured as previously described by Ting et al. MCF7 […] cells were maintained in α-MEM medium (ThermoFisher Scientific) supplemented with 2 mM L-glutamine, 10% FBS, 0.1 mM non-essential amino acids, 1 mM sodium pyruvate, and antibiotics (100 U mL^−1 penicillin G and […] streptomycin). M10 (BCRC 60197) cells were maintained in α-MEM medium (ThermoFisher Scientific) supplemented with 10% FBS and antibiotics. With the exception of MB231 and MB453, all cells were cultured at 37° C. with 5% CO2. For the cell viability and transfection assay, 1×10^4 cells [5×10^3 M10 cells were seeded and cultured for 48 h to allow the cells sufficient time for attachment] were seeded into the wells of a 96-well plate and cultured overnight. For the transfection assays, cells were transfected with 0.1-0.4 μg FOSB/FOSAB expression plasmid (Origene Technology Inc.) and cell viability was determined after 72 h. The transfection efficiencies (number of cells expressing eGFP/all cells) of the MB231 transfection assays were determined by observing ten randomly selected fields (from three independent transfections) of control GFP plasmid transfections under an inverted microscope (Olympus, IX71) coupled to a digital camera (Olympus DP80), using an […] (LCPlanFI 20×/0.40 Ph1). CellSens standard software (Olympus) was used for image acquisition. During the drug treatment assay, inhibitors (PD98059, BAPTA-AM, and AlP II) were added 30 min prior to TP4, and cell viability was determined at indicated time-points. Transfection was performed using LipofectAMINE™ 3000 (ThermoFisher Scientific), according to the manufacturer's recommendations. Knock-down cells were generated by transducing MB231 cells with pre-synthesized FOSB (or control) shRNA lentiviral particles (Santa Cruz Biotechnology), and selecting puromycin-resistant cells in accordance with the manufacturer's standard protocol. MB231 or M10 cells stably expressing eGFP or mOrange2 were generated through transfection with peGFP-puromycin or pmOrange2-C1 plasmid, followed by puromycin (5 μg mL^−1) or G418 (500 μg mL^−1) selection as described above.
# (§2) Cell viability was quantitatively analyzed using the CellTiter-Glo® Luminescent Cell Viability Assay kit (ATP assay) and CellTiter 96® AQueous Non-Radioactive Cell Proliferation Assay kit (MTS assay) (Promega) in accordance with the manufacturer's protocol. For MTS assay, 1×10^4 cells were seeded into the wells of a 96-well plate and cultured overnight [5×10^3 M10 cells were seeded and cultured for 48 h to enable sufficient well attachment]. Cells were subsequently treated with different doses of TP4 (2.5-20 μg mL^−1) and harvested at the indicated time-points (3-24 h). Reaction mixtures (20 μL: MTS+PMS, using a ratio 20:1) were directly added to the cells, and the plates were incubated for 3 h at 37° C. Absorbance at 490 nm is directly proportional to the number of living cells in culture and was measured using a photometer (SpectraMax® i3, Molecular Devices). ATP assay was performed as previously described by Ting et al. Lactate dehydrogenase (LDH) assays were performed by quantitatively measuring cell lysis with a Cytotoxicity Detection Kit^PLUS (LDH) (Roche) in accordance with the manufacturer's protocol. The LDH standard was purchased from Cayman Chemical. Briefly, 1×10^4 cells were seeded into the wells of a 96-well plate and cultured overnight. Culture media were replaced with fresh medium containing 1% FBS and cells were subsequently treated with different doses of TP4 (2.5-20 μg mL^−1). Supernatants were harvested at 3 h. […]
# MCF7 cells = assay: MTS cell viability assay, MCF7; type: cell-based, human; conditions: mean±SD
# Description: as §1, §2
sequence,measurement,setting,value
"FIHHIIGGLFSAGKAIHRLIRRRRR [TP4, tilapia piscidin 4]","Cellular toxicity (cell viability), MTS assay","MB453 (MDA-MB453) cells; MB453, TP4 2.5 μg/mL, 3 h",93.75 ± 4.33^d
same,"Cellular toxicity (cell viability), MTS assay","MB453 (MDA-MB453) cells; MB453, TP4 2.5 μg/mL, 6 h",86.51 ± 4.19^d
same,"Cellular toxicity (cell viability), MTS assay","MB453 (MDA-MB453) cells; MB453, TP4 2.5 μg/mL, 12 h",92.21 ± 6.61^d
same,"Cellular toxicity (cell viability), MTS assay","MB453 (MDA-MB453) cells; MB453, TP4 2.5 μg/mL, 24 h",87.84 ± 4.75^d
same,"Cellular toxicity (cell viability), MTS assay","MB453 (MDA-MB453) cells; MB453, TP4 5.0 μg/mL, 3 h",91.50 ± 4.32^d
same,"Cellular toxicity (cell viability), MTS assay","MB453 (MDA-MB453) cells; MB453, TP4 5.0 μg/mL, 6 h",76.46 ± 6.25^d
same,"Cellular toxicity (cell viability), MTS assay","MB453 (MDA-MB453) cells; MB453, TP4 5.0 μg/mL, 12 h",80.18 ± 5.41^d
same,"Cellular toxicity (cell viability), MTS assay","MB453 (MDA-MB453) cells; MB453, TP4 5.0 μg/mL, 24 h",87.00 ± 4.16^d
same,"Cellular toxicity (cell viability), MTS assay","MB453 (MDA-MB453) cells; MB453, TP4 10.0 μg/mL, 3 h",77.82 ± 4.33^d
same,"Cellular toxicity (cell viability), MTS assay","MB453 (MDA-MB453) cells; MB453, TP4 10.0 μg/mL, 6 h",58.58 ± 5.43^d
same,"Cellular toxicity (cell viability), MTS assay","MB453 (MDA-MB453) cells; MB453, TP4 10.0 μg/mL, 12 h",62.25 ± 10.74^d
same,"Cellular toxicity (cell viability), MTS assay","MB453 (MDA-MB453) cells; MB453, TP4 10.0 μg/mL, 24 h",77.24 ± 4.07^d
same,"Cellular toxicity (cell viability), MTS assay","MB453 (MDA-MB453) cells; MB453, TP4 15.0 μg/mL, 3 h",53.12 ± 10.90^d
same,"Cellular toxicity (cell viability), MTS assay","MB453 (MDA-MB453) cells; MB453, TP4 15.0 μg/mL, 6 h",27.09 ± 2.54^d
same,"Cellular toxicity (cell viability), MTS assay","MB453 (MDA-MB453) cells; MB453, TP4 15.0 μg/mL, 12 h",27.32 ± 5.51^d
same,"Cellular toxicity (cell viability), MTS assay","MB453 (MDA-MB453) cells; MB453, TP4 15.0 μg/mL, 24 h",58.93 ± 2.80^d
same,"Cellular toxicity (cell viability), MTS assay","MB453 (MDA-MB453) cells; MB453, TP4 20.0 μg/mL, 3 h",36.33 ± 5067^d
same,"Cellular toxicity (cell viability), MTS assay","MB453 (MDA-MB453) cells; MB453, TP4 20.0 μg/mL, 6 h",18.25 ± 1.80^d
same,"Cellular toxicity (cell viability), MTS assay","MB453 (MDA-MB453) cells; MB453, TP4 20.0 μg/mL, 12 h",15.02 ± 4.28^d
same,"Cellular toxicity (cell viability), MTS assay","MB453 (MDA-MB453) cells; MB453, TP4 20.0 μg/mL, 24 h",40.15 ± 2.66^d
same,"Cellular toxicity (cell viability), MTS assay","MCF7 cells; MCF7, TP4 2.5 μg/mL, 3 h",98.00 ± 6.05^a
same,"Cellular toxicity (cell viability), MTS assay","MCF7 cells; MCF7, TP4 2.5 μg/mL, 6 h",91.20 ± 6.51^b
same,"Cellular toxicity (cell viability), MTS assay","MCF7 cells; MCF7, TP4 2.5 μg/mL, 12 h",93.01 ± 10.60^b
same,"Cellular toxicity (cell viability), MTS assay","MCF7 cells; MCF7, TP4 2.5 μg/mL, 24 h",90.83 ± 5.30^b
same,"Cellular toxicity (cell viability), MTS assay","MCF7 cells; MCF7, TP4 5.0 μg/mL, 3 h",83.74 ± 6.10^d
same,"Cellular toxicity (cell viability), MTS assay","MCF7 cells; MCF7, TP4 5.0 μg/mL, 6 h",79.17 ± 12.06^d
same,"Cellular toxicity (cell viability), MTS assay","MCF7 cells; MCF7, TP4 5.0 μg/mL, 12 h",77.79 ± 7.73^d
same,"Cellular toxicity (cell viability), MTS assay","MCF7 cells; MCF7, TP4 5.0 μg/mL, 24 h",75.19 ± 11.28^d
same,"Cellular toxicity (cell viability), MTS assay","MCF7 cells; MCF7, TP4 10.0 μg/mL, 3 h",75.01 ± 11.15^d
same,"Cellular toxicity (cell viability), MTS assay","MCF7 cells; MCF7, TP4 10.0 μg/mL, 6 h",70.30 ± 12.26^d
same,"Cellular toxicity (cell viability), MTS assay","MCF7 cells; MCF7, TP4 10.0 μg/mL, 12 h",68.89 ± 6.54^d
same,"Cellular toxicity (cell viability), MTS assay","MCF7 cells; MCF7, TP4 10.0 μg/mL, 24 h",67.00 ± 10.90^d
same,"Cellular toxicity (cell viability), MTS assay","MCF7 cells; MCF7, TP4 15.0 μg/mL, 3 h",45.15 ± 9.89^d
same,"Cellular toxicity (cell viability), MTS assay","MCF7 cells; MCF7, TP4 15.0 μg/mL, 6 h",28.28 ± 6.29^d
same,"Cellular toxicity (cell viability), MTS assay","MCF7 cells; MCF7, TP4 15.0 μg/mL, 12 h",26.23 ± 6.08^d
same,"Cellular toxicity (cell viability), MTS assay","MCF7 cells; MCF7, TP4 15.0 μg/mL, 24 h",25.09 ± 3.83^d
same,"Cellular toxicity (cell viability), MTS assay","MCF7 cells; MCF7, TP4 20.0 μg/mL, 3 h",24.63 ± 3.80^d
same,"Cellular toxicity (cell viability), MTS assay","MCF7 cells; MCF7, TP4 20.0 μg/mL, 6 h",15.48 ± 2.33^d
same,"Cellular toxicity (cell viability), MTS assay","MCF7 cells; MCF7, TP4 20.0 μg/mL, 12 h",14.36 ± 2.10^d
same,"Cellular toxicity (cell viability), MTS assay","MCF7 cells; MCF7, TP4 20.0 μg/mL, 24 h",11.90 ± 3.39^d
